Patent publication US20180000085A1, “USE OF PICOLINAMIDE COMPOUNDS WITH FUNGICIDAL ACTIVITY” (DOW AGROSCIENCES LLC, priority 2014, published 2018)

How the values were obtained:
Puccinia triticina = experiment: Wheat brown rust (PUCCRT) disease control on wheat seedlings; type: in vivo; design: key to PUCCRT 3DC, HV activity at 100 ppm (% control rating) / PUCCRT disease control, 3DC / PUCCRT 1DP disease control rating, HV activity / PUCCRT 3DC disease control rating, HV activity / PUCCRT 3DC, LV activity at 125.1 g/H (% Control rating) / PUCCRT 1DP, LV activity at 125.1 g/H (% Control rating) / PUCCRT 3DC disease control rating, LV activity at 125.1 g/H / PUCCRT 1DP disease control rating, LV activity at 125.1 g/H / PUCCRT 3DC disease control rating, HV activity at 100 ppm / PUCCRT 1DP disease control rating, HV activity at 100 ppm / HV activity at 100 ppm PUCCRT 3DC (disease control rating) / LV activity at 125.1 g/H PUCCRT 1DP (disease control rating) / LV activity at 125.1 g/H PUCCRT 3DC (disease control rating): A: > 80; B: ≤ 80; C: Not Tested; D: No Activity Observed in the Reported Assay; conditions: for PUCCRT 1DP, LV activity at 125.1 g/H (% Control rating) / PUCCRT 3DC, LV activity at 125.1 g/H (% Control rating) / PUCCRT 1DP disease control rating, LV activity at 125.1 g/H / PUCCRT 3DC disease control rating, LV activity at 125.1 g/H: low volume application; for PUCCRT 1DP, LV activity at 125.1 g/H (% Control rating) / PUCCRT 1DP disease control rating, HV activity: 1 Day Protectant; for PUCCRT 3DC, LV activity at 125.1 g/H (% Control rating) / PUCCRT 3DC disease control rating, HV activity: 3 Day Curative; for PUCCRT 1DP disease control rating, HV activity / PUCCRT 3DC disease control rating, HV activity: HV application at 100 ppm, wheat brown rust
Zymoseptoria tritici = experiment: Leaf blotch of wheat (SEPTTR) disease control on wheat seedlings; type: in vivo; design: key to SEPTTR 1DP, HV activity at 100 ppm (% control rating) / SEPTTR 3DC, HV activity at 100 ppm (% control rating) / SEPTTR disease control, 1DP / SEPTTR disease control, 3DC / SEPTTR 1DP disease control rating, HV activity / SEPTTR 3DC disease control rating, HV activity / SEPTTR 3DC, LV activity at 125.1 g/H (% Control rating) / SEPTTR 1DP, LV activity at 125.1 g/H (% Control rating) / SEPTTR 1DP disease control rating, LV activity at 125.1 g/H / SEPTTR 3DC disease control rating, LV activity at 125.1 g/H / SEPTTR 3DC disease control rating, HV activity at 100 ppm / SEPTTR 1DP disease control rating, HV activity at 100 ppm / HV activity at 100 ppm SEPTTR 3DC (disease control rating) / HV activity at 100 ppm SEPTTR 1DP (disease control rating) / LV activity at 125.1 g/H SEPTTR 1DP (disease control rating) / LV activity at 125.1 g/H SEPTTR 3DC (disease control rating): A: > 80; B: ≤ 80; C: Not Tested; D: No Activity Observed in the Reported Assay; conditions: for SEPTTR 1DP, LV activity at 125.1 g/H (% Control rating) / SEPTTR 3DC, LV activity at 125.1 g/H (% Control rating) / SEPTTR 1DP disease control rating, LV activity at 125.1 g/H / SEPTTR 3DC disease control rating, LV activity at 125.1 g/H: low volume application; for SEPTTR 1DP, LV activity at 125.1 g/H (% Control rating) / SEPTTR 1DP disease control rating, HV activity: 1 Day Protectant; for SEPTTR 3DC, LV activity at 125.1 g/H (% Control rating) / SEPTTR 3DC disease control rating, HV activity: 3 Day Curative; for SEPTTR 1DP disease control rating, HV activity / SEPTTR 3DC disease control rating, HV activity: HV application at 100 ppm, wheat leaf blotch
[1] = high volume application, 100 ppm, 1 day protectant
[2] = high volume application, 100 ppm, 3 day curative

Row | SMILES | PUCCRT 1DP, LV activity at 125.1 g/H (% Control rating) (Puccinia triticina) | PUCCRT 3DC, LV activity at 125.1 g/H (% Control rating) (Puccinia triticina) | SEPTTR 1DP, LV activity at 125.1 g/H (% Control rating) (Zymoseptoria tritici) | SEPTTR 3DC, LV activity at 125.1 g/H (% Control rating) (Zymoseptoria tritici) | PUCCRT 1DP disease control rating, HV activity (Puccinia triticina) | PUCCRT 3DC disease control rating, HV activity (Puccinia triticina) | SEPTTR 1DP disease control rating, HV activity (Zymoseptoria tritici) | SEPTTR 3DC disease control rating, HV activity (Zymoseptoria tritici) | also measured
1 | COc1ccnc(C(=O)N[C@@H](C)C(=O)O[C@@H](C)[C@H](Oc2ccc(Cl)cc2Cl)c2ccccc2)c1OC(C)=O [Cmpd 635] | A (> 80) | B (≤ 80) | A (> 80) | A (> 80) |  |  |  |  | 
2 | COc1ccnc(C(=O)N[C@@H](C)C(=O)O[C@@H](C)[C@@H](Cc2ccccc2)OC)c1O [Cmpd 342] |  |  |  |  | B (≤ 80) | A (> 80) | D | B (≤ 80) | 
3 | COc1ccnc(C(=O)N[C@@H](CC(C)C)C(=O)O[C@@H](C)[C@H](Oc2ccc(Cl)cc2Cl)C(C)C)c1OC(C)=O [Cmpd 570] | D | D | D | D |  |  |  |  | 
4 | COc1ccnc(C(=O)NC(C)C(=O)OC(C)C(Oc2cccc(Cl)c2)C(C)C)c1OC(C)=O (stereo not shown) [Cmpd 857] |  |  |  |  |  |  |  |  | PUCCRT 1DP disease control rating, LV activity at 125.1 g/H (Puccinia triticina; 1 day protectant): A (> 80); PUCCRT 3DC disease control rating, LV activity at 125.1 g/H (Puccinia triticina; 3 day curative): A (> 80); SEPTTR 1DP disease control rating, LV activity at 125.1 g/H (Zymoseptoria tritici; 1 day protectant): B (≤ 80); SEPTTR 3DC disease control rating, LV activity at 125.1 g/H (Zymoseptoria tritici; 3 day curative): B (≤ 80)
5 | CCCOC(CC)C(Oc1ccccc1)C(C)OC(=O)C(C)(C)NC(=O)c1nccc(OC)c1O (stereo not shown) [Cmpd 417] |  |  |  |  | D | D | D | B (≤ 80) | 
6 | CCCOCC(C)OC(=O)C(C)NC(=O)c1nccc(OC)c1OCOC(=O)C(C)C (stereo not shown) [Cmpd 523] | D | D | D | D |  |  |  |  | 
7 | CCC[C@@H](OCC1CC1)[C@H](C)OC(=O)[C@H](C)NC(=O)c1nccc(OC)c1O [Cmpd 1003] |  |  |  |  |  |  |  |  | PUCCRT 1DP disease control rating, HV activity at 100 ppm (Puccinia triticina; [1]): A (> 80); PUCCRT 3DC disease control rating, HV activity at 100 ppm (Puccinia triticina; [2]): A (> 80); SEPTTR 1DP disease control rating, HV activity at 100 ppm (Zymoseptoria tritici; [1]): A (> 80); SEPTTR 3DC disease control rating, HV activity at 100 ppm (Zymoseptoria tritici; [2]): B (≤ 80)
8 | COc1ccnc(C(=O)NC(C)C(=O)OC(C)C(OCC2CC2)c2cccc(-c3ccccc3)c2)c1O (stereo not shown) [Cmpd 442] |  |  |  |  | B (≤ 80) | B (≤ 80) | D | B (≤ 80) | 
9 | CCC(CC)C(Oc1cc(F)cc(Cl)c1)C(C)OC(=O)C(CC(C)C)NC(=O)c1nccc(OC)c1OC(C)=O (stereo not shown) [Cmpd 688] |  |  |  |  |  |  |  |  | PUCCRT 1DP disease control rating, LV activity at 125.1 g/H (Puccinia triticina; 1 day protectant): D; PUCCRT 3DC disease control rating, LV activity at 125.1 g/H (Puccinia triticina; 3 day curative): D; SEPTTR 1DP disease control rating, LV activity at 125.1 g/H (Zymoseptoria tritici; 1 day protectant): D; SEPTTR 3DC disease control rating, LV activity at 125.1 g/H (Zymoseptoria tritici; 3 day curative): B (≤ 80)
10 | C=CC[C@@H](OCc1ccccc1)[C@H](C)OC(=O)[C@H](C)NC(=O)c1nccc(OC)c1OCOC(=O)COCC [Cmpd 517] | A (> 80) | A (> 80) | A (> 80) | D |  |  |  |  | 
11 | CCC(CC)C(Oc1ccc(Cl)cc1Cl)C(C)OC(=O)C(C)NC(=O)c1nccc(OC)c1OC(C)=O (stereo not shown) [Cmpd 675] |  |  |  |  |  |  |  |  | PUCCRT 1DP disease control rating, LV activity at 125.1 g/H (Puccinia triticina; 1 day protectant): A (> 80); PUCCRT 3DC disease control rating, LV activity at 125.1 g/H (Puccinia triticina; 3 day curative): B (≤ 80); SEPTTR 1DP disease control rating, LV activity at 125.1 g/H (Zymoseptoria tritici; 1 day protectant): A (> 80); SEPTTR 3DC disease control rating, LV activity at 125.1 g/H (Zymoseptoria tritici; 3 day curative): A (> 80)
12 | COc1ccnc(C(=O)N[C@@H](C)C(=O)O[C@@H](C)COCC2CC2)c1O [Cmpd 338] |  |  |  |  | B (≤ 80) | D | B (≤ 80) | D | 
13 | COc1ccnc(C(=O)N[C@@H](C)C(=O)O[C@@H](C)[C@H](Oc2cc(F)cc(Cl)c2)C(C)C)c1OC(C)=O [Cmpd 628] | A (> 80) | A (> 80) | B (≤ 80) | A (> 80) |  |  |  |  | 
14 | COc1ccnc(C(=O)N[C@@H](C)C(=O)O[C@@H](C)[C@@H](COc2ccccc2)Oc2ccccc2)c1OC(C)=O [Cmpd 488] | A (> 80) | A (> 80) | A (> 80) | B (≤ 80) |  |  |  |  | 
15 | COc1ccnc(C(=O)NC(C)C(=O)OC(C)COC(=O)C(C)C)c1OCOC(=O)C(C)C (stereo not shown) [Cmpd 531] | D | D | D | B (≤ 80) |  |  |  |  | 
16 | CC[C@H](C)[C@H](NC(=O)c1nccc(OC)c1OCOC(C)=O)C(=O)O[C@@H](C)[C@H](Oc1cc(F)ccc1F)C(C)C [Cmpd 619] | A (> 80) | A (> 80) | D | D |  |  |  |  | 
17 | CC[C@H](Cc1ccccc1)[C@@H](Oc1ccccc1)[C@H](C)OC(=O)CNC(=O)c1nccc(OC)c1O [Cmpd 312] |  |  |  |  | A (> 80) | A (> 80) | D | D | 
18 | COc1ccnc(C(=O)N[C@@H](C)C(=O)O[C@@H](C)[C@@H](OCC(C)C)c2ccccc2)c1OC(C)=O [Cmpd 878] |  |  |  |  |  |  |  |  | PUCCRT 1DP disease control rating, LV activity at 125.1 g/H (Puccinia triticina; 1 day protectant): A (> 80); PUCCRT 3DC disease control rating, LV activity at 125.1 g/H (Puccinia triticina; 3 day curative): A (> 80); SEPTTR 1DP disease control rating, LV activity at 125.1 g/H (Zymoseptoria tritici; 1 day protectant): B (≤ 80); SEPTTR 3DC disease control rating, LV activity at 125.1 g/H (Zymoseptoria tritici; 3 day curative): B (≤ 80)
19 | COc1ccnc(C(=O)NC(C(=O)OC(C)C(Oc2cccc3ccccc23)C(C)C)C(C)C)c1O (stereo not shown) [Cmpd 400] |  |  |  |  | A (> 80) | B (≤ 80) | B (≤ 80) | B (≤ 80) | 
20 | CC[C@H](Cc1ccc(F)cc1)[C@@H](Oc1ccccc1)[C@H](C)OC(=O)[C@H](C)NC(=O)c1nccc(OC)c1OCOC(C)=O [Cmpd 471] | A (> 80) | A (> 80) | A (> 80) | A (> 80) |  |  |  |  | 
21 | COc1ccnc(C(=O)N[C@@H](C)C(=O)O[C@@H](C)[C@H](Oc2ccc(C(F)(F)F)cc2)C(C)C)c1OC(C)=O [Cmpd 629] | A (> 80) | A (> 80) | B (≤ 80) | B (≤ 80) |  |  |  |  | 
22 | CCC(Cc1ccccc1)C(OCC(C)C)C(C)OC(=O)C(C)NC(=O)c1nccc(OC)c1OCOC(C)=O (stereo not shown) [Cmpd 454] |  |  |  |  | A (> 80) | A (> 80) | A (> 80) | A (> 80) | 
23 | CCC(CC)C(Oc1ccc(Cl)cc1)C(C)OC(=O)C(CC(C)C)NC(=O)c1nccc(OC)c1OCOC(C)=O (stereo not shown) [Cmpd 681] |  |  |  |  |  |  |  |  | PUCCRT 1DP disease control rating, LV activity at 125.1 g/H (Puccinia triticina; 1 day protectant): D; PUCCRT 3DC disease control rating, LV activity at 125.1 g/H (Puccinia triticina; 3 day curative): D; SEPTTR 1DP disease control rating, LV activity at 125.1 g/H (Zymoseptoria tritici; 1 day protectant): D; SEPTTR 3DC disease control rating, LV activity at 125.1 g/H (Zymoseptoria tritici; 3 day curative): B (≤ 80)
24 | CCCOC[C@H](C)OC(=O)[C@H](C)NC(=O)c1nccc(OC)c1O [Cmpd 334] |  |  |  |  | D | B (≤ 80) | B (≤ 80) | B (≤ 80) | 
25 | COc1ccnc(C(=O)N[C@@H](C)C(=O)O[C@@H](C)[C@H](OC)c2ccccc2)c1OC(C)=O [Cmpd 887] |  |  |  |  |  |  |  |  | PUCCRT 1DP disease control rating, LV activity at 125.1 g/H (Puccinia triticina; 1 day protectant): D; PUCCRT 3DC disease control rating, LV activity at 125.1 g/H (Puccinia triticina; 3 day curative): A (> 80); SEPTTR 1DP disease control rating, LV activity at 125.1 g/H (Zymoseptoria tritici; 1 day protectant): D; SEPTTR 3DC disease control rating, LV activity at 125.1 g/H (Zymoseptoria tritici; 3 day curative): A (> 80)
